Calls of active or inactive are those of the source.
Tests used:
Beta Lactamase = Beta Lactamase (Pseudomonas aeruginosa, UniProt Q932Y6); experiment: beta-lactamase reporter inhibitor potency, dose response, artefact control for TLR9-MyD88 binding inhibitor project, BLA reporter cells, FRET fluorescence (AID 588341); assay type: cell-based;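 note: cell based assay in CHO-K1 cells stably expressing beta-lactamase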
CHO = experiment: cytotoxicity in TLR9-MyD88 CHO cells, dose response, cytotoxicity control for TLR9-MyD88 binding inhibitor project, cell-based, luminescence (AID 588339); assay type: functional, hamster; conditions: Cricetulus griseus;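 note: CHO cells stably coexpressing TLR9 and MyD88 fusions from primary screen; compound exposure lasted 48 hours before viability readout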
Insulin-degrading enzyme [1] = target: T1, Insulin-degrading enzyme (Homo sapiens, UniProt P14735); experiment: activators of recombinant IDE enzyme, dose response, counter-screen for IDE activator project, biochemical, fluorescence polarization (AID 588681)
T1 sequence (P14735 whole entry): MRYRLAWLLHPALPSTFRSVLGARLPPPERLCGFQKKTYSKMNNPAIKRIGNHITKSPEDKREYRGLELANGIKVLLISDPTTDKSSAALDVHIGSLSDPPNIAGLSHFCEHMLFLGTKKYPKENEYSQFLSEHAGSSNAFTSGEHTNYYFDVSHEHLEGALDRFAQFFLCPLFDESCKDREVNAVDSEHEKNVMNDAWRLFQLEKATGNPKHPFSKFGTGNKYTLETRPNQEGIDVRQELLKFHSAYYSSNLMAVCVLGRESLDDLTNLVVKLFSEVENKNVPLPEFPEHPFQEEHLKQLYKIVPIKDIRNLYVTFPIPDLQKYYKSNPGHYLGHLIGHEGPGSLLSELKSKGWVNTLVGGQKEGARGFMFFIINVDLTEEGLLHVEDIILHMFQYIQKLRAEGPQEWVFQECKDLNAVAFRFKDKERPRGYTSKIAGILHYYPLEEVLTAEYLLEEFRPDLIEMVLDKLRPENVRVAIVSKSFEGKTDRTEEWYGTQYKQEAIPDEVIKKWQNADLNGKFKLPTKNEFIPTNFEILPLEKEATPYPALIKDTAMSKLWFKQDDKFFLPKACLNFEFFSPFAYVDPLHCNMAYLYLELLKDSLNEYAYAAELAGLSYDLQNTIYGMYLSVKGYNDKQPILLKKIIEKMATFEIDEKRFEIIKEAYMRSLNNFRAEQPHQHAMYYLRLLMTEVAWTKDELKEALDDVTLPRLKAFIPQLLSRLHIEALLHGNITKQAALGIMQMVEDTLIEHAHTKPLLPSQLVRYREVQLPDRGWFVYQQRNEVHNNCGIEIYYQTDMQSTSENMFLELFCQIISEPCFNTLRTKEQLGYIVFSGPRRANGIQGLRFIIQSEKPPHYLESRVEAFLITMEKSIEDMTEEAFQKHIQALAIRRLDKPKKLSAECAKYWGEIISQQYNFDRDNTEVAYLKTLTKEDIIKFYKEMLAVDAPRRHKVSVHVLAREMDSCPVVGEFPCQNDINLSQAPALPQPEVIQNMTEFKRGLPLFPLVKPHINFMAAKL

Insulin-degrading enzyme [2] = target: T1, Insulin-degrading enzyme; experiment: activators of endogenous IDE in HEK cells, dose response, cell-based, fluorescence polarization (AID 588439); assay type: functional
HEK293 [3] = experiment: optical interference in Abeta FP readout, dose response, artefact control for IDE activator project, biochemical, fluorescence polarization (AID 588442); assay type: functional, cell-based; conditions: Homo sapiens
HEK293 [4] = experiment: HEK cell cytotoxicity by LDH release, dose response, cytotoxicity control for IDE activator project, fluorescence, HEK cells (AID 588440); assay type: functional, cell-based; conditions: Homo sapiens;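 note: cytotoxicity by LDH release measuring loss of membrane integrity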
[5] = target: UDP-galactopyranose mutase (Mycobacterium tuberculosis, UniProt P9WIQ1); experiment: Inhibitors of Mycobacterium tuberculosis UDP-galactopyranose mutase (UGM) enzyme Measured in Biochemical System Using Plate Reader - 2105-02_Inhibitor_Dose_CherryPick_Activity. [Related pubchem assays (depositor defined):AID504439]
UDP-galactopyranose mutase, sequence (P9WIQ1 whole entry): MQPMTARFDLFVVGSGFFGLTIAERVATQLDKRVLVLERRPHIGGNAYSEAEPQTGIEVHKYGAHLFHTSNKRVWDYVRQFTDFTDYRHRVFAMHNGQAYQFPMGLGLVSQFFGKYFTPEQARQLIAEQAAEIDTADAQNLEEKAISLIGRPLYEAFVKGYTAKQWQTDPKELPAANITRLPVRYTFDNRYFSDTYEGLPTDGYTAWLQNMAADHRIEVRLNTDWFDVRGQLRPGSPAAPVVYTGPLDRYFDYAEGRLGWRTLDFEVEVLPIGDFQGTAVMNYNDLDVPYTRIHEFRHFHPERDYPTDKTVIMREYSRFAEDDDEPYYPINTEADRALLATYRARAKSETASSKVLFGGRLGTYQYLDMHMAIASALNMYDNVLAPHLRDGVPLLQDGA

[6] = target: T2, Corticotropin-releasing factor receptor 2/Corticotropin-releasing factor-binding protein (Homo sapiens, UniProt P24387+Q13324); experiment: activators of CRF receptor 2 with binding protein – uHTS hits, confirmation (AID 602473); assay type: functional; conditions: read-out: EC50_Mean
T2 sequence (Q13324 whole entry): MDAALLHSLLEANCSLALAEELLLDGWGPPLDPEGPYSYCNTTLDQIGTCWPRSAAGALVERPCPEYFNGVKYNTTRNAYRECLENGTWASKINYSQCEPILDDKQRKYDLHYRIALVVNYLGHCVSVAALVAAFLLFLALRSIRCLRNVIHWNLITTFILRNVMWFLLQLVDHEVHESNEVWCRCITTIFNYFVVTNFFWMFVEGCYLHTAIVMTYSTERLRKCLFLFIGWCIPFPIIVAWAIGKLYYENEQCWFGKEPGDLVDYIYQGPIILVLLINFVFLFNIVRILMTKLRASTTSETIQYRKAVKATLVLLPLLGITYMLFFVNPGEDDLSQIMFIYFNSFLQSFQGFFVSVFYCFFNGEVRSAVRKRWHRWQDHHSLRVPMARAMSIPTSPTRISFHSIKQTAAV
T2 sequence (P24387 whole entry): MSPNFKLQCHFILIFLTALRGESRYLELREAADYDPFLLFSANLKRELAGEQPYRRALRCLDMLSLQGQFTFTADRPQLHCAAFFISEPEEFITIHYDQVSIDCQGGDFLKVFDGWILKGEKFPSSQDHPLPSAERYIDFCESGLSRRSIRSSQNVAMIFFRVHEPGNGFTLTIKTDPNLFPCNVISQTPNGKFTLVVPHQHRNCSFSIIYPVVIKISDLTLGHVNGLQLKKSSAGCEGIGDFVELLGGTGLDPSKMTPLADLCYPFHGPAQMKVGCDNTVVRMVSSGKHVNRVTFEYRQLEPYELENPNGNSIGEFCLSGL

[7] = test system: Streptococcus sp. 'group A'; experiment: growth inhibition of control SK(-) GAS strain, dose response, counter-screen for streptokinase expression inhibitor project, luminescence, kanamycin, BacTiterGlo, confirmation (AID 1900); assay type: functional, organism-based
cells = assay type: functional
H9c2 = experiment: cells; assay type: functional, cell-based; conditions: Rattus norvegicus, H9c2, Myocardium;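 note: confirmatory concentration-response retest of ultra-high-throughput screening hits for modulation of myocardial damage; cell death induced by hydrogen peroxide oxidative stress; compound pretreatment for 60 min then peroxide exposure for 2 h; potency is for protecting the cells against peroxide damage rather than for killing them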
[8] = THP-1 cell cytotoxicity, dose response, cytotoxicity control for non-replicating M. tuberculosis project (AID 489025); assay type: functional
Streptococcus = experiment: Group A Streptococcus viability loss, dose response, counter-screen for streptokinase expression inhibitor project, luminescence, BacTiterGlo (AID 1915); assay type: functional, organism-based;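 note: potency for reduction of bacterial viability or growth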
[9] = target: T3, Heat shock factor protein 1 (Mus musculus, UniProt P38532); experiment: inhibition of MG132-induced HSE-luciferase signal, confirmation, cell-based, NIH3T3, luminescence, dose retest (AID 2382); assay type: functional;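 note: NIH3T3 fibroblasts with HSF1-driven luciferase reporter stressed by proteasome inhibitor MG132; luminescence from HSF1-driven luciferase expression after 8 hours of MG132 stress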
T3 sequence (P38532 whole entry): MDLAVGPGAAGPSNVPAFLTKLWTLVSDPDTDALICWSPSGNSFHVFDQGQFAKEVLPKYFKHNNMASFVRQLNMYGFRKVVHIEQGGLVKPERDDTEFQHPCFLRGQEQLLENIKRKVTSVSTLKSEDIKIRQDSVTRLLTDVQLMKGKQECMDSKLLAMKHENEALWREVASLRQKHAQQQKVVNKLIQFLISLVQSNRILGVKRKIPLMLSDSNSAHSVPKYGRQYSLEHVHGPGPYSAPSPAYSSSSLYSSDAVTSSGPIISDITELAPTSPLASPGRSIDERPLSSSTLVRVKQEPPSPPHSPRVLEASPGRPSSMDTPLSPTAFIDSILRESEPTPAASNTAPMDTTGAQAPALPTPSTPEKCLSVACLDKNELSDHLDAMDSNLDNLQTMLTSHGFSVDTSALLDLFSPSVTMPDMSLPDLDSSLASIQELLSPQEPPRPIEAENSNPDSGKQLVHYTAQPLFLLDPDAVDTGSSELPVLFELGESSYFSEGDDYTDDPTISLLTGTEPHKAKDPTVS

Beta Lactamase, sequence (Q932Y6 whole entry, the tested form may be a part): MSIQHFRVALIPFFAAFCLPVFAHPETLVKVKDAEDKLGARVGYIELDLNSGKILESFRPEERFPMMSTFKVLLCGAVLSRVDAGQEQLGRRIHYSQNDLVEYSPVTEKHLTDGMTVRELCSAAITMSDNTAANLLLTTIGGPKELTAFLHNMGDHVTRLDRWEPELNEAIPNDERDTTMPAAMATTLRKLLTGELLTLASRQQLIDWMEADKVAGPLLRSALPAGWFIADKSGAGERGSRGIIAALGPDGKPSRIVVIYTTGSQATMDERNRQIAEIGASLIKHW

For `Nc1ccc2c(C(F)(F)F)cc(=O)oc2c1`, the IC50 (Beta Lactamase) was 4.77 µM (active) and the IC50 (CHO) was > 49.7 µM (inactive).
In the case of `COCO/C=C(\NC(C)=O)c1ccccc1`, the EC50 (Insulin-degrading enzyme [1]) is reported as > 54.7 µM (inactive), the EC50 (Insulin-degrading enzyme [2]) is reported as > 54.7 µM (inactive) and the EC50 (HEK293 [3]) is reported as > 56 µM (inactive). The IC50 (HEK293 [4]) was > 89.3 µM (inactive).
For `O=C(NC1CCCCC1)c1cccc2c1C(=O)c1ccc(N3CCC(Cc4ccccc4)CC3)cc1S2(=O)=O`, the AC50 [5] was 72.3 µM (active), the IC50 (Beta Lactamase) was 3.87 µM (active) and the IC50 (CHO) was > 49.7 µM (inactive). The EC50 [6] was 6.47 µM (active).
With `O=c1c(O)c(-c2cccs2)oc2ccc(Cl)cc12` the EC50 [7] was 2.11 µM (active), the IC50 (cells) was 13.8 µM (active) and the EC50 (Insulin-degrading enzyme [1]) was > 54.7 µM (inactive). The IC50 (H9c2) was > 79 µM (inactive), the EC50 (Insulin-degrading enzyme [2]) was > 54.7 µM (inactive) and the EC50 (HEK293 [3]) was > 54.7 µM (inactive). For the same molecule, the CC50 [8] was > 40 µM (active), the IC50 (HEK293 [4]) was > 89.2 µM (inactive) and the EC50 (Streptococcus) was 7.38 µM (active).
In the case of `COc1ccc(/C=C(\C#N)C(=O)Nc2cc(C)c(Cl)cc2OC)cc1O`, the EC50 (Insulin-degrading enzyme [1]) is reported as > 54.7 µM (inactive), the EC50 (Insulin-degrading enzyme [2]) is reported as > 54.7 µM (inactive) and the EC50 (HEK293 [3]) is reported as > 55.9 µM (inactive). The IC50 (HEK293 [4]) was 12.6 µM (inactive) and the EC50 [9] was > 195 µM (not active).
